pIC50: −log10 of the molar value. *1 amine or outer side, *2 acyl side, *3 side chain or, on linkers, in order; H or OH if unused. Where a SMILES comes first, the peptide text is derived from it. [ ]: non-standard residue; d: D form. The star is where a group is joined. Hyp = O=C(O)[C@@H]1C[C@@H](O)CN1; βNA = c1ccc2cc(N*)ccc2c1; 2Abz = Nc1ccccc1C(=O)O; CO = O=C([*:1])[*:2]; Bn = c1ccc(C*)cc1
How the values were obtained:
gastrin receptor = target: T1, gastrin receptor (Cavia porcellus, UniProt H0VZC5); test: Gastrin Receptor Binding Assay; conditions: guinea pig gastric glands, displacement of 125I-(Leu-15)-Gastrin, 25° C., 30 minutes; read-out: IC50 Gastrin (In Vitro Binding Data)
T1 construct: The fundic mucosa is gently scraped off the submucosa; from tissue; host or cells: guinea pig (Hartley) fundic mucosa gastric glands, collagenase-dispersed
T1 sequence (H0VZC5 1-426): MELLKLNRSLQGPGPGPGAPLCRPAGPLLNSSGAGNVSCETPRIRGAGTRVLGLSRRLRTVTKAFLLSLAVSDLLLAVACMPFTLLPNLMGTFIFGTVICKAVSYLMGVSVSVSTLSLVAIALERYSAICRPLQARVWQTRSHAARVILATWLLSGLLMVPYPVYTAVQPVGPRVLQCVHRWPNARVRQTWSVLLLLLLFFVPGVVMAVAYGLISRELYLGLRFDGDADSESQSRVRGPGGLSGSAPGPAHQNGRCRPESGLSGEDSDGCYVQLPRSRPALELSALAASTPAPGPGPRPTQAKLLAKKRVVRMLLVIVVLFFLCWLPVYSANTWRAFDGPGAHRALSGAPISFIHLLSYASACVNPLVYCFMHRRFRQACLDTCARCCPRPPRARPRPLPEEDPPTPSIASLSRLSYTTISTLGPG
From the text: (§1) The effectiveness of the compounds of this invention as gastrin or cholecystokinin antagonists may be determined by the following pharmacologic tests which evaluate the gastrin and cholecystokinin antagonist activity of said compounds. The CCK-A Receptor Binding Assay and the Gastrin Receptor Binding Assay are standard test procedures. The CCK-A Receptor Binding Assay is essentially that of Chang, et al., "Characterization of the Binding of [^3 H]-(±)-L-364,718: A New Potent, Nonpeptide Cholecystokinin Antagonist Radioligand Selective for Peripheral Receptors", Molecular Pharmacology, 30: 212-217 (1986). The Gastrin Receptor Binding Assay is essentially that of Chang, et al., "Characterization of [^3 H]Pentagastrin Binding in Guinea Pig Gastric Glands - An Alternative Convenient Ligand for Receptor Binding Assay", Biochemical and Biophysical Research Communications, 134 (2): 895-899 (1986).
Gastrin Receptor Binding Assay
Phosphate Buffered Saline (PBS): 8.743 g NaCl, 523 mg K2 HPO4 and 76.8 mg NaH2 PO4 is dissolved in 900 ml of deionized water, the pH of the solution is adjusted to 7.3 with 5N NaOH, then Q.S. to 1 L.
Buffer A: Powdered Basal Medium Eagle (BME) containing Earle's Salts, L-glutamine and 25 mM HEPES without bicarbonate (Sigma Cat. number B 4391) sufficient to make 3 liters is stirred into 2.7 L of deionized water, […] sodium bicarbonate is added and the mixture stirred to give dissolution. The solution is then equilibrated with 95% O2 /5% CO2 gas followed by titration to a pH of 7.4 with NaOH, then Q.S. to 3 L.
Buffer B: 18.75 mg of collagenase A and 25 mg of pH neutralized BSA is dissolved in 25 ml of Buffer A.
Buffer C: 0.3 g of BSA is dissolved in 300 ml of Buffer A.
Buffer D: 6.25 mg Bacitracin is dissolved in 25 ml of Buffer A.
A guinea pig (Hartley Strain) weighing 150-200 grams, is sacrificed by CO2 asphyxiation and the stomach immediately excised, cut along the greater curvature, cleaned out and immediately immersed in a beaker containing cold PBS, pH 7.3, to insure thorough cleaning. The fundic mucosa is gently scraped off the submucosa and added to a preweighed 50 ml plastic centrifuge tube containing 30 ml of cold Buffer A. The weight of the plastic centrifuge tube containing the buffer is then subtracted from the combined weight of the mucosa and the buffer-containing tube to give the weight of the mucosa. The weight of the mucosa thus determined is recorded for later calculations. The mucosa is then washed twice in Buffer A. After the final wash, the tissue is minced and is placed in a 100-ml glass beaker containing about 1.0 ml of Buffer A, and washed twice again by repeated centrifugation at 50Xg for 5 minutes each and aspiration of supernatant. The washed tissue fragments are then added to a glass Erlenmeyer flask containing 25 ml of Buffer B and incubated in a Dubnoff shaking water bath at 37° C. for 30 minutes in a 95% O2 /5% CO2 atmosphere. After the incubation, the digested tissue fragments in the Collegenase-buffer solution are triturated, filtered through a 200-micron nylon mesh and centrifuged at 50Xg for 5 minutes. The supernatant is aspirated and discarded, the tissue washed 2X in Buffer C, resuspended in same buffer, incubated in a 37° C water bath in an atmosphere of 95% O2 /5% CO2 for 5 minutes, and centrifuged. The pelleted glands are suspended in Buffer D at a desired concentration of 2×10^5 glands/ml to use in the receptor binding assay.
Assay Buffer: Buffer A as above
^125 l-(Leu-15)-Gastrin: 100 microcurie dissolved in 2.0 ml of Buffer A to make 50 microcurie/ml; stored in 50 μl aliquots under Argon at -70° C.
^125 I-(15-methionine)-Human Gastrin: 50 microcurie/ml in deionized water, stored in 50 μl aliquots as above.
(Leu 15)-Gastrin 17:5.2 mg of (Leu-15)- Gastrin is dissolved in 10 ml of Buffer A and stored in 30 μl aliquots. At the time of assay a 1:10 dilution is made and 10 μl/assay tube is used. […]

CCK-A receptor = target: T2, CCK-A receptor (Rattus norvegicus, UniProt P30551); test: CCK-A Receptor Binding Assay; conditions: rat pancreas membranes, displacement of 3H-L-364,718 (0.2 nM), 37° C., 30 minutes; read-out: IC50 CCK-A (In Vitro Binding Data)
T2 construct: from tissue; host or cells: rat (Sprague-Dawley) pancreas membrane homogenate
T2 sequence (P30551 1-444): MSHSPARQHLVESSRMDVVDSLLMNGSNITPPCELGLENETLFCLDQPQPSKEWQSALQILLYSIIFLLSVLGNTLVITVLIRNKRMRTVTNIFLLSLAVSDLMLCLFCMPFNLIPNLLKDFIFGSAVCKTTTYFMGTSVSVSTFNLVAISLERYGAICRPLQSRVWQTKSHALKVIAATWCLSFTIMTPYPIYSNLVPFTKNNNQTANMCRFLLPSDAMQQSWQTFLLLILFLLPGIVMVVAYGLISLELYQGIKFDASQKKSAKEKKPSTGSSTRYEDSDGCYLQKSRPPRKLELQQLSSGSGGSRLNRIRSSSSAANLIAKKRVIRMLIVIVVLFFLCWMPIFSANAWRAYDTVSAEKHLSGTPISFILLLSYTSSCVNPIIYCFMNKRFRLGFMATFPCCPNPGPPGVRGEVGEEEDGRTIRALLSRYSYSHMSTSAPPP
From the text: as §1
CCK-A Receptor Binding Assay
Wash Buffer (for use with Brandel Cell Harvester):
30 liters (L) of 50 mM Tris, pH 7.7: Dissolve 1 81.7 g Tris base in 4 L deionized water at room temperature. Adjust pH to 7.7 with 6N HCl and Q.S. to 30 L.
50 mM Tris-Cl, 5 mM MgCl2, 5 mM dithiothreitol, 0.14 mg/ml bacitracin, and 2 mg/ml bovine serum albumin (BSA).
1 liter of 5X stock buffer:
30.28 g Tris base per 800 ml deionized water, 5.08 g MgCl2 ·6H20, pH to 7.7 at room temperature with 6N HCl and Q.S. to 1 liter, store at 4° C.
250 ml working buffer (kept on ice):
50 ml of 5X stock buffer 0.1928 g dithiothreitol (5 mM), 35 mg bacitracin (0.14 mg/ml), and 0.5 g BSA (2mg/ml).
Unlabeled L-364,718 (nonpeptide ligand):
Unlabeled L-364,718 (N-(2,3-dihydro-1-methyl-2-oxo-5-phenyl-1H-1,4-benzodiazepin-3-yl)-1H-indole-2-carboxamide) (300 nM final concentration) is used to define nonspecific binding. A […] solution is made in absolute ethanol and stored at -70° C. Aliquots are diluted 100-fold in the assay.
A Sprague-Dawley rat is sacrificed by asphyxiation with carbon dioxide and the pancreas removed. The tissue is immersed in cold wash buffer and carefully trimmed of fat, connective tissue, blood vessels, blotted and weighed. The tissue is homogenized in a Sorvall SS-34 centrifuge tube in 50 volumes of wash buffer using a Polytron at setting 7 for 15 seconds. The tissue is centrifuged (Sorvall SS-34) at 19,000 rpm for 10 min. The supernatant is poured off and the pellet resuspended in sufficient buffer to obtain a concentration of 40 mg tissue wet weight/mi. Separate aliquots (2.3ml) are placed in each of 8 centrifuge tubes and centrifuged as before. The supernatants are poured off and the pellets stored at -70° C. Stored pellets are sufficient for the assay of 160 tubes and are stable for 1-2 months.
During the assay the stored membranes are resuspended in 40 ml of assay buffer by scraping the pellet off the wall of the centrifuge tube and washing it into a teflon-glass homogenizer. Membranes are resuspended by 5 passes with the teflon pestle and the membranes stored on ice until ready for use.
Preparation of Compounds:
Compounds of the present invention to be tested are prepared in DMSO (dimethyl sulfoxide) or in assay buffer. The majority of compounds of the present invention active as CCK antagonists generally require DMSO for complete solubility. Approximately 2-3 mg of compound is weighed directly into a 13×100 mm test tube and sufficient DMSO added to obtain a working stock solution at a concentration 100 fold greater than the highest concentration being tested in the assay. A total of 10 μl of each concentration of drug is added into a final volume of 1 ml to yield a 100 fold dilution of the working stock solution. Control binding tubes ("totals and nonspecifics") are also treated with 10 μl DMSO.
^3 H-L-364,718 is obtained from New England Nuclear (Cat. #971) and is used as supplied. […]

pIC50 (gastrin receptor) | pIC50 (CCK-A receptor) | SMILES
6.70 | – | O=C(O)c1ccccc1NC(=O)[C@@H]1CCCN1C(=O)[C@@H]1C[C@@H](OCc2ccccc2)CN1C(=O)Nc1cccc2ccccc12 [Example 11, 2-[(N-(4(R)benzyloxy-N-naphth-1-ylcarbamoyl-L-prolyl)-L-prolyl)amino]benzoic acid]
5.59 | 5.52 | Cc1cccc(NC(=O)N2C[C@H](OCc3ccccc3)C[C@H]2C(=O)N[C@H](CC(C)C)C(=O)N[C@H](CC(=O)O)C(N)=O)c1 [Example 7]
4.99 | 5.14 | O=C([C@H]1CCCN1C(=O)Nc1ccc2ccccc2c1)N1CCc2c([nH]c3ccccc23)C1 [Example 4, 2-(N-naphth-2-ylcarbamoyl-D-prolyl)-1,2,3,4-tetrahydro-9H-pyrido[3,4-b]indole]
6.89 | – | O=C(O)c1ccccc1NC(=O)[C@@H]1CCCN1C(=O)[C@@H]1C[C@@H](OCc2ccccc2)CN1C(=O)Nc1ccc2ccccc2c1 [Example 9, 2-[(N-(4(R)-benzyloxy-N-naphth-2-ylcarbamoyl-L-prolyl)-L-prolyl)amino]benzoic acid] ({βNA-CO}-[Hyp](Bn)-Pro-[2Abz]-OH)
< 4.52 | 4.43 | Cc1cccc(NC(=O)N2CCC[C@@H]2C(=O)N2CCc3c([nH]c4ccccc34)C2)c1 [Example 5, 2-[N-(3-methyl)phenylcarbamoyl-D-prolyl]-1,2,3,4-tetrahydro-9H-pyrido[3,4-b]indole]
3.92 | 4.82 | COc1ccc(NC(=O)N2C[C@H](OCc3ccccc3)C[C@H]2C(=O)N2CCc3c([nH]c4ccccc34)C2)cc1 [Example 2, 2-[(N-(4-methoxy)phenylcarbamoyl-4(R)-benzyloxy)-L-prolyl]-1,2,3,4-tetrahydro-9H-pyrido[3,4-b]indole]
< 3.52 | 4.52 | Cc1cccc(NC(=O)N2c3ccccc3C[C@H]2C(=O)N2CCc3c([nH]c4ccccc34)C2)c1 [Example 3, 2-[(N-(3-methyl)phenylcarbamoylindolin-2(S)-yl)carbonyl]-1,2,3,4-tetrahydro-9H-pyrido[3,4-b]indole]
< 4.52 | 4.43 | Cc1cccc(NC(=O)N2CCC[C@H]2C(=O)N2CCc3c([nH]c4ccccc34)C2)c1 [Example 6, 2-[N-(3-methyl)phenylcarbamoyl-L-prolyl]-1,2,3,4-tetrahydro-9H-pyrido[3,4-b]indole]

SMILES | pIC50 (gastrin receptor) | pIC50 (CCK-A receptor)
Cc1cccc(NC(=O)N2C[C@H](OCc3ccccc3)C[C@H]2C(=O)N2CCc3c([nH]c4ccccc34)C2)c1 [Example 1, 2-[(N-(3-methyl)phenylcarbamoyl-4(R)-benzyloxy)-L-prolyl]-1,2,3,4-tetrahydro-9H-pyrido[3,4-b]indole] | < 3.52 | 5.05

Reference: US5340801A, “Compounds having cholecystokinin and gastrin antagonistic properties” (Rhone-Poulenc Rorer Pharmaceuticals Inc., priority 1991, dated 1994)
